Laboratory results: article PMC5444695, “CM363, a novel naphthoquinone derivative which acts as multikinase modulator and overcomes imatinib resistance in chronic myelogenous leukemia” (Oncotarget, 2016)
“Also recorded” adds a separate entry of the source.

Columns and labels:
[1] = system: HEK cells; test: MTT cell viability assay, HEK cells; assay type: cell-based; conditions: Homo sapiens, HEK293, 48 h, read-out: IC50 (μM) Mean ± SD
Procedure: (§1) All cell lines were purchased from the American Type Culture Collection (ATCC). The cell lines were growth at 37°C under 5% CO2 under humidified atmosphere. The cell lines K562 (derived from patients during the blast crisis phase of CML and IM sensitive), K562-R (IM resistance human CML), KmycBT15I (KBTI; IM resistant human CML, expressing the Bcr-Abl […] mutant), HEL (human erythroleukemia), HL60 (human acute myeloid leukemia), MOLM-13 (human acute myeloid leukemia), MV4.11 (human acute monocytic leukemia), HCT-15 (human colorectal adenocarcinoma), PC3 (human prostate cancer), MCF7 (human breast cancer), NCTC3749 (mouse lymphoma) as well as the MRC.5 cells (non-malignant human lung fibroblasts) were maintained in RPMI-1640 medium. The cell lines L1210 (mouse lymphocytic leukemia cells), Raw (mouse macrophage), HeLa (human epithelial cervix cancer), U-2 OS (human osteosarcoma), MG63 (human osteosarcoma) and T47D (human breast cancer adenocarcinoma) were maintained in DMEM. HEK293 cells stably expressing the GH receptor (HEKGHR) were maintained in DMEM-F12 medium. […]
(§2) Cells were seeded in 96-well plates (BD Falcon, France) at exponential growth density (5000–20000 cells/well) and treated with vehicle (0.05% DMSO) or compound (0.01 to 10 μM) for 48–72 h. […] Optical density was measured at 595 nm with the iMark Microplate Reader (BioRad, CA, USA).

[2] = system: T47D cells; test: MTT cell viability assay, T47D cells; assay type: cell-based; conditions: Homo sapiens, 48 h, read-out: IC50 (μM) Mean ± SD
Procedure: as §1, §2

[3] = system: PC3 cells; test: MTT cell viability assay, PC3 cells; assay type: cell-based; conditions: Homo sapiens, PC-3, PC3, 48 h, read-out: IC50 (μM) Mean ± SD
Procedure: as §1, §2

[4] = system: MCF7 cells; test: MTT cell viability assay, MCF7 cells; assay type: cell-based; conditions: Homo sapiens, MCF7, 48 h, read-out: IC50 (μM) Mean ± SD
Procedure: as §1, §2

[5] = system: HCT-15 cells; test: MTT cell viability assay, HCT-15 cells; assay type: cell-based; conditions: Homo sapiens, HCT-15, 48 h, read-out: IC50 (μM) Mean ± SD
Procedure: as §1, §2

[6] = system: L1210 cells; test: MTT cell viability assay, L1210 cells; assay type: cell-based; conditions: Mus musculus, L1210, 48 h, read-out: IC50 (μM) Mean ± SD
Procedure: as §1, §2

[7] = system: K562 tumor xenografts; test: K562 tumor xenografts in NOD-SCID mice; assay type: in vivo; conditions: CM363 10 mg/kg i.p., 25 days, P = 0.004 day 4, P = 0.007 day 25
Procedure: Six weeks old female athymic mice (NOD-SCID), were purchased from Charles River River (Barcelona, Spain), and were housed in a specifically designed pathogen-free isolation facility as reported previously. […] The vehicle and CM363 treatments were administered via intraperitoneal injection (i.p.) every day except Saturday and Sunday. […] The study was conducted over a 25 days period. Caliper measurements of the tumor diameters were performed twice per week, and the tumor volume was estimated as the volume of an ellipse using the following formula: V = 4/3n × (a/2) × (b/2)^2, where a and b correspond to the longest and shortest diameter, respectively. Mice were sacrificed when their tumor diameters reached 2 cm, or when they became moribund. Differences in tumor volumes between control and treated group were evaluated using the Mann-Whitney test.

[8] = Body weight of xenografted mice; assay type: in vivo; conditions: CM363 10 mg/kg i.p., 25 days
Procedure: Six weeks old female athymic mice (NOD-SCID), were purchased from Charles River River (Barcelona, Spain), and were housed in a specifically designed pathogen-free isolation facility as reported previously. The mice were subcutaneously inoculated into the right flank with 2.5 × l0^6 K562 cells in 100 μL of RPMI-1640 medium and 100 μL of Matrigel. When tumors became palpable, mice were randomized into three groups (n = 8 per group); the control group (receiving vehicle alone- DMSO: PEG-400: sterile water at 5:25:70 (w/v)), the group receiving CM363 10 mg/Kg or the group receiving the positive control IM 40 mg/kg. The vehicle and CM363 treatments were administered via intraperitoneal injection (i.p.) every day except Saturday and Sunday. While IM was administered orally using the same schedule. The study was conducted over a 25 days period. Caliper measurements of the tumor diameters were performed twice per week, and the tumor volume was estimated as the volume of an ellipse using the following formula: V = 4/3n × (a/2) × (b/2)^2, where a and b correspond to the longest and shortest diameter, respectively. Mice were sacrificed when their tumor diameters reached 2 cm, or when they became moribund. Differences in tumor volumes between control and treated group were evaluated using the Mann-Whitney test.

[9] = system: KBTI cells; test: Viability of IM-resistant KBTI cells; assay type: cell-based; conditions: IM-resistant KBTI human cells, data not shown
Procedure: as §1, §2

[10] = system: pYStat5; test: GM-CSF-induced pYStat5 in primary mouse macrophages; assay type: cell-based; conditions: 3 μM CM363 for 0.5 h, data not shown
[11] = system: Stat5 response element; test: Stat5 luciferase reporter gene assay in HEKGHR cells; assay type: cell-based; conditions: 1 h pretreatment then GH 7 h
Procedure: The HEKGHR cell line was used to determine the effects of compounds on GH-regulated Stat5 transcriptional activity. HEKGHR cells were transfected with pSPI-GLE1-Luc (1 μg) overnight using Metafectene Pro® (Biontex, Germany). The β-galactosidase expression plasmid (0.05 μg) (Thermo Scientific, Illinois, USA) was used for controlling transfection efficiency. The stable reporter cell line HeLa/Stat3-luc (Panomics, Fremont, USA), was used to determine the effects of compounds on oncostatin M-regulated Stat3 transcriptional activity. Cells were seeded in a 6-well culture plate (Nunc, Denmark) and they were serum deprived (0.5% FBS) for 16 h. Then, cells were treated with vehicle (0.05% DMSO) or compound (0.1 to 10 μM) during 1 h before rhGH (50 nM) or oncostatin M (50 ng/ml) were added for 7 h for induction of Stat5- or Stat3-dependent transcriptional activities, respectively. Cells were lysed in Passive Lysis Buffer and luciferase activity was determined by the Luciferase Assay System (Thermo Scientific, Illinois, USA). Luciferase activity was measured using the microplate reader Fluoroskan Ascent FL (Labsystems). Results are expressed as relative luciferase units (RLU) per mg of protein content and β-galactosidase activity and normalized to those obtained for vehicle-treated control cells.

Molecule `N#Cc1ccc(C2C3=C(CCCC3=O)OC3=C2C(=O)c2ccccc2C3=O)cc1` (centres unmarked) [CM363, 4-(1,6,11-trioxo-2,3,4,6,11,12-hexahydro-1H-benzo[b]xanthen-12-yl)benzonitrile] has an IC50 [1] of 0.6 ± 0.2 µM, an IC50 [2] of 1.3 ± 1.2 µM and an IC50 [3] of 1.5 ± 1 µM. The IC50 [4] was 1.7 ± 1.1 µM, the IC50 [5] was 3.3 µM and the IC50 [6] was 3.4 ± 0.4 µM. The “tumor growth (tumor volume) versus control group” value [7] was “suppressed the growth; also recorded: pronounced, and statistically significant reduction”, the body weight [8] was “no significant body weight reduction” and the “sensitivity of KBTI cells” value [9] was “partial resistance”. The “inhibition of GM-CSF-induced (10 min) pYStat5” value [10] was “complete inhibition” and the “Stat5-dependent reporter gene (luciferase) activity” value [11] was “inhibit”.
